Measurements reported in patent publication EP0774458A1, “Substituted benzodicarboxylic acid diguanidines, process for their preparation, and their use as medicament or diagnostic agent” (HOECHST AKTIENGESELLSCHAFT, priority 1995, dated 1997).

Biological target: T1, Na^+/H^+-Exchangers von Kaninchenerythrocyten (Oryctolagus cuniculus, UniProt P23791)
T1 construct: den Na^+-Influx in die Erythrocyten via Na^+/H^+-Austausch flammenphotometrisch bestimmen zu können; from tissue; host or cells: Erythrocytes in whole blood from the ear arteries of cholesterol-fed White New Zealand rabbits (Ivanovas)
T1 sequence (P23791 whole entry): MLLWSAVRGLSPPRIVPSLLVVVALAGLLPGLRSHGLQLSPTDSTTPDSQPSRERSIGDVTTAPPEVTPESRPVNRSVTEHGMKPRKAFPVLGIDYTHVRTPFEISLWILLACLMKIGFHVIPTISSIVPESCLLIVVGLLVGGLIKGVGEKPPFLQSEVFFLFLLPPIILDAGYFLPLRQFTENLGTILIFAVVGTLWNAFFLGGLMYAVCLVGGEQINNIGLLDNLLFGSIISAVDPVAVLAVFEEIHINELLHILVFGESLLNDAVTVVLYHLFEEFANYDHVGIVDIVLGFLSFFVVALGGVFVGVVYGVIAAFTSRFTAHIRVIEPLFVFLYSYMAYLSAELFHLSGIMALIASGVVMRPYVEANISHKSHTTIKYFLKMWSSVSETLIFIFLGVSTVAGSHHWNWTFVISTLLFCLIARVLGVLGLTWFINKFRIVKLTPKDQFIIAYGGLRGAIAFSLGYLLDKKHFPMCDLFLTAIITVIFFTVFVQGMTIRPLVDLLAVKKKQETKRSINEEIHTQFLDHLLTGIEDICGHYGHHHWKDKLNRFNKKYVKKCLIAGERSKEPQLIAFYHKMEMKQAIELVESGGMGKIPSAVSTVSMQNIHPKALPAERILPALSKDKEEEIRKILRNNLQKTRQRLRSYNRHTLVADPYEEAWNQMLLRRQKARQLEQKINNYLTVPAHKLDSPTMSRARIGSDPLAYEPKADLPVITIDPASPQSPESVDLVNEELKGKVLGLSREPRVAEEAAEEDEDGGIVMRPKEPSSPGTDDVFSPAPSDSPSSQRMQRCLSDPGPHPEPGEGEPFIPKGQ
Experiment: Inhibition of the Na+/H+ exchanger of rabbit erythrocytes (amiloride-sensitive sodium influx, flame photometry)
Assay type: cell-based, Weiße Neuseeland-Kaninchen
Settings: Inhibition des Na^+/H^+-Exchangers, hyperosmolares Salz-Sucrose-Medium, pH 7,4, 37°C
From the text: Inhibition des Na^+/H^+-Exchangers von Kaninchenerythrocyten Weiße Neuseeland-Kaninchen (Ivanovas) erhielten eine Standard-Diät mit 2 % Cholesterin für sechs Wochen, um den Na^+/H^+-Austausch zu aktivieren und so den Na^+-Influx in die Erythrocyten via Na^+/H^+-Austausch flammenphotometrisch bestimmen zu können. Das Blut wurde den Ohrarterien entnommen und durch 25 IE Kalium-Heparin ungerinnbar gemacht. Ein Teil jeder Probe wurde zur Doppelbestimmung des Hämatokrits durch Zentrifugieren benutzt. Aliquots von jeweils 100 µl dienten zur Messung des Na^+-Ausgangsgehalts der Erythrocyten.
Um den Amilorid-sensitiven Natrium-Influx zu bestimmen, wurden 100 µl jeder Blutprobe in jeweils 5 ml eines hyperosmolaren Salz-Sucrose-Mediums (mmol/l: 140 NaCl, 3 KCl, 150 Sucrose, 0,1 Ouabain, 20 Tris-hydroxymethylaminomethan) bei pH 7,4 und 37°C inkubiert. Die Erythrocyten wurden danach dreimal mit eiskalter MgCl2-Ouabain-Lösung (mmol/l: 112 MgCl2, 0,1 Ouabain) gewaschen und in 2,0 ml destilliertem Wasser hämolysiert. Der intrazelluläre Natriumgehalt wurde flammenphotometrisch bestimmt.
Der Na^+-Nettoinflux wurde aus der Differenz zwischen Natrium-Ausgangswerten und dem Natriumgehalt der Erythrocyten nach Inkubation errechnet. Der Amilorid-hemmbare Natrium-Influx ergab sich aus der Differenz des Natriumgehalts der Erythrocyten nach Inkubation mit und ohne Amilorid 3 x 10-4 mol/l. […]

SMILES: NC(N)=NC(=O)c1cc(C(=O)N=C(N)N)c(Cl)c(-c2ccccc2)c1 [Beispiel 1, 4-Chlor-5-phenyl-isophthalsäure-diguanidid]
- IC50: 900 µM
